For one compound, inhibition results are on record in publication PMC7801734, “Discovery of a new molecule inducing melanoma cell death: dual AMPK/MELK targeting for novel melanoma therapies” (Cell Death & Disease, 2021).

Common to all, as to assay type: biochemical
One test has as its target MAPKAPK2 (Homo sapiens, UniProt P49137). Briefly: Z'-LYTE kinome assay at […] (ATP Km app), n = […]. As to conditions: read-out: CRO15 1 μM.
The target of test [1] is T1, MELK (maternal embryonic leucine zipper kinase) (Homo sapiens, UniProt Q14680).
T1 construct: recombinant MELK protein
T1 sequence (Q14680 whole entry): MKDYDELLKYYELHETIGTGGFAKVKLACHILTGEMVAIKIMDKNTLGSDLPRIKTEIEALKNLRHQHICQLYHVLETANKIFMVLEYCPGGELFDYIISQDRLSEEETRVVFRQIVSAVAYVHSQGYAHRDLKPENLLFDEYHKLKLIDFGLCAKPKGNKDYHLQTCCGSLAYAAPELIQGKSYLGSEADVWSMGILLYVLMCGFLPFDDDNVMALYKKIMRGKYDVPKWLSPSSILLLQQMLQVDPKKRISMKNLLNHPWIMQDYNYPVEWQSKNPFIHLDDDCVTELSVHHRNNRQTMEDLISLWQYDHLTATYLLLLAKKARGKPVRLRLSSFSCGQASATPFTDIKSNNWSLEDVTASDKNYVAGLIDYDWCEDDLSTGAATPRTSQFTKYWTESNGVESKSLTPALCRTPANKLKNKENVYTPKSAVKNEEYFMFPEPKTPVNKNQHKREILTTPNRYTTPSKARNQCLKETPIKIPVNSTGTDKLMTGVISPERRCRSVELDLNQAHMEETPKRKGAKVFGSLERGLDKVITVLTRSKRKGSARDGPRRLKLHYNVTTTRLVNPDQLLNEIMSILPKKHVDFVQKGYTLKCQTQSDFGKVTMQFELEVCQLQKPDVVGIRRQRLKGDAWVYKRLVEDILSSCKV
Briefly: Z'-LYTE kinome assay at […] (ATP Km app); ADP-Glo dose-response with recombinant MELK; supported by biotin-CRO15 pull-down. On the technique in general: ADP-Glo first removes unused ATP, then detects ADP through luciferase.

A further test deals with AKT2 (PKB beta) (Homo sapiens, UniProt P31751). Briefly: Z'-LYTE kinome assay at […], n = […]. As to conditions: read-out: CRO15 1 μM.
Sequence of AKT2 (PKB beta) (P31751 whole entry): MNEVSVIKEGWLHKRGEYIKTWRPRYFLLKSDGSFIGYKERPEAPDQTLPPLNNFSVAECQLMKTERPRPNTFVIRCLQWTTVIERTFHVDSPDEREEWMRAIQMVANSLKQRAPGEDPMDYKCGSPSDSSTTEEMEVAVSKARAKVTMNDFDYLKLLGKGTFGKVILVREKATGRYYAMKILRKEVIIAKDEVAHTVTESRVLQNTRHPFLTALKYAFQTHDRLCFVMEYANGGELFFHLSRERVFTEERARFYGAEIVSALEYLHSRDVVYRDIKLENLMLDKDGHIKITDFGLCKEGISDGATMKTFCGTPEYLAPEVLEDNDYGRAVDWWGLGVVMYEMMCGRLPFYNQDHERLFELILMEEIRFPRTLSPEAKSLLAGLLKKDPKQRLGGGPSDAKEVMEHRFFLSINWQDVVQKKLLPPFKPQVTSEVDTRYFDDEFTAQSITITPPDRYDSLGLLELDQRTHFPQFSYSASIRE
In the next test the target is GSK3B (GSK3 beta) (Homo sapiens, UniProt P49841). The test is described as follows: Z'-LYTE kinome assay at […] (ATP Km app), n = […]. Conditions: read-out: CRO15 1 μM.
Sequence of GSK3B (GSK3 beta) (P49841 whole entry): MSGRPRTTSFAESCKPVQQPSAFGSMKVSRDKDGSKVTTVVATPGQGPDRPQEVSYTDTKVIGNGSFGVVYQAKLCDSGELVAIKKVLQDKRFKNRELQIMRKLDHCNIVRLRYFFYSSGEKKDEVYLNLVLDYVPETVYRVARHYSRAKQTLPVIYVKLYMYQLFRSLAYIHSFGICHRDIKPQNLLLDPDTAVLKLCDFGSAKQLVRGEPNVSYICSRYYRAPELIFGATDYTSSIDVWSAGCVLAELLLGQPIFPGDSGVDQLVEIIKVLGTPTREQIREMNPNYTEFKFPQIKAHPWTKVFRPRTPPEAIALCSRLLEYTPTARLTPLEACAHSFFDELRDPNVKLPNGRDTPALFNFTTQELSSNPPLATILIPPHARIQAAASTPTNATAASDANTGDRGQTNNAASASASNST

Sequence of MAPKAPK2 (P49137 whole entry): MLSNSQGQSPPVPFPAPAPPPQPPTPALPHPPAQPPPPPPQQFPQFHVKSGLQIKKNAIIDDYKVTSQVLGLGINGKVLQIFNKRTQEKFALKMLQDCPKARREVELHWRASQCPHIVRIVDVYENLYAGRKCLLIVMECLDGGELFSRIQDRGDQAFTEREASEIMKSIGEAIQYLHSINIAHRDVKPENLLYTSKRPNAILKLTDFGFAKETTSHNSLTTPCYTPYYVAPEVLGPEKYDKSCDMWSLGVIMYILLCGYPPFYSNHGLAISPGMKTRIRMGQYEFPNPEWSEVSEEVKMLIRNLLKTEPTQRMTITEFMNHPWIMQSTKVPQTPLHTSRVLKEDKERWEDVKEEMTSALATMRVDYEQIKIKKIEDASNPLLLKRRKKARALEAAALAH

On to `Nc1nc(Nc2ccccc2SSc2ccccc2Nc2nc(N)nc(C(Cl)(Cl)Cl)n2)nc(C(Cl)(Cl)Cl)n1` [CRO15], for which the inhibition at 1 µM is 90% at MAPKAPK2, 72% in test [1], 74% on AKT2 (PKB beta) and 72% at GSK3B (GSK3 beta).
